Results published in US12194050B2, “Thiadiazine derivatives” (RICHTER GEDEON NYRT., priority 2018, dated 2025).

Tests used:
[1] = target: human α7 nAchR (Homo sapiens (Human), UniProt P36544); experiment: Human α7 nicotinic acetylcholine receptor [Ca2+]i assay (PAM, Ca2+ fluorometry); type: cell-based; details: Flp-In 293 cells expressing human α7 nAchR and human RIC-3; in presence of saturating agonist (mostly PNU-282987, 1 μM)
Protocol: Biological Activity Human α7 Nicotinic Acetylcholine Receptor [Ca^2+]i Assay
Cells: Flp-In 293 cells stably expressing human α7 nAchR and human RIC-3 (α7 cells, generated in house.)
Materials: 96-well plates coated with PDL (Falcon), culture medium, assay buffer, DMSO, FLIPR Calcium 5 kit (Molecular Devices), probenecid, agonist and PAM test compounds.
Brief Description of the Method (Ca^2+ Fluorometry)
α7 cells stably expressing human α7 nAchR were cultured in the medium detailed above, and were split twice a week. For the fluorometric measurements of cytosolic Ca^2+ ion concentration ([Ca^2+]i) cells were seeded in 96-well microplates at a density of 60000 cells/well and maintained overnight in a tissue culture incubator at 37° C. under an atmosphere of 95% air/5% CO2. The plating medium was identical with the culture medium. 50 μl of the growth medium was aspirated with a cell washer (BioTek Elx405UCVWS). Then 50 μl/well Calcium 5 kit diluted 2-fold in assay buffer was added manually using an 8-channel pipette. After an incubation period (20 minutes, 37° C.) 50 μl/well assay buffer containing vehicle (DMSO, 4% added) or reference α7 PAMs (4×of the final concentration) were added manually and the cells were incubated for an additional 10 minutes at 37° C. Baseline and agonist-evoked [Ca2+]i-changes were monitored with FlexStation II (Molecular Devices, Sunnyvale, Calif.), a plate reader fluorometer with integrated 8-channel fluid addition capability. Fluorescence measurements were carried out at 37° C. The dye was excited at 485 nm, emission was sampled at 525 nm at 1.4-s intervals. Baseline was recorded for 20 seconds followed by agonist stimulation. 50 μl 4× concentrated agonist solution was added to the cells using the pipettor of FlexStation II and fluorescence was monitored for an additional 40 seconds. Final DMSO concentration was 1% for all treatments. To achieve this, a series of DMSO stock solutions were prepared from all test compounds. These stocks were stored under 0° C. and were further diluted in assay buffer to obtain the desired final concentration immediately before the measurement. Agonist and PAM concentration-response studies were conducted in the presence of saturating concentrations of PAMs (mostly PNU-120596, 5 μM) and agonists (mostly PNU-282987, 1 μM), respectively. Results were expressed as ΔF/F values using SoftMax Pro software (Molecular Devices), where F was the resting fluorescence preceding agonist application and ΔF was the increase in fluorescence at a given time (ΔF=maximum fluorescence intensity values after stimulation minus average fluorescence intensity values before stimulation). In all experiments, all treatments were measured in multiple wells in parallel, and the mean ΔF/F values were used for analysis.

[2] = test system: Male NMRI mice; experiment: Place recognition test (Y-maze), reversal of scopolamine-induced amnesia; type: in vivo; details: scopolamine 1 mg/kg i.p.
Protocol: In Vivo Pharmacology (Place Recognition Test)
Animals: Male NMRI mice (Toxicoop, Hungary)
Substances: Scopolamine was dissolved in saline and administered at 1 mg/kg dose i.p. Test compounds were administered 30 minutes before the acquisition trial (T1) and scopolamine after the acquisition trial at a volume of 0.1 ml/10 g.
Procedure: The task was carried out in a transparent plexiglass Y-maze (each arm has a length of 40 cm, an inner width of 11 cm and a height of 30 cm). Numerous visual cues were placed around the arms and were kept constant during the experiment. The test consisted of two trials (T1 and T2) separated by an intertrial interval of 30 minutes. Mice were placed in the starting arm of the maze at the beginning of each trial. In T1, one of the symmetric arms of the maze was closed (it will be novel in T2) and the animals were allowed to explore the maze for 5 minutes (acquisition phase). In T2, mice had free access to all three arms for 2 minutes (retrieval phase). The time spent with exploration in the novel and familiar arms during T2 was measured. Differences between the exploration times spent in the familiar vs. novel arms of the maze for each group were evaluated by MANOVA, followed by Duncan post hoc test.
Significant differences (^+p<0.05; ^++p<0.01; ^+++p<0.001) were observed between the exploration times spent in the novel vs. familiar arms of the maze.

Sequence of human α7 nAchR (P36544 23-502): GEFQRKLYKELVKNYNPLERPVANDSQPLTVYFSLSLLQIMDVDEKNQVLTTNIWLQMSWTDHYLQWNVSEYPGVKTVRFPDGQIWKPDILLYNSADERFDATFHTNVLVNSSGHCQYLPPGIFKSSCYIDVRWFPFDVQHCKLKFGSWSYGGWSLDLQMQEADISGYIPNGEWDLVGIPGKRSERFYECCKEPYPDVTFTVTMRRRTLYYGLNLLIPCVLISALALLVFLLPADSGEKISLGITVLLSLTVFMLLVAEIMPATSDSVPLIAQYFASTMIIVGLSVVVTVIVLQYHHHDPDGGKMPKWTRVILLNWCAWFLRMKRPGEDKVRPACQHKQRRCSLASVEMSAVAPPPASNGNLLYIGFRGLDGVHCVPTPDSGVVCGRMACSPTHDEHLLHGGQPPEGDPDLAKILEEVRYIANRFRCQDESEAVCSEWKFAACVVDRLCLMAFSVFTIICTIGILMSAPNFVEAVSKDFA

EC50 [1] [nM] | Compound | reversal of the scopolamine-induced amnesia; significance of exploration time novel vs. familiar arm ([2]; 1 mg/kg i.p.) | reversal of the scopolamine-induced amnesia; significance of exploration time novel vs. familiar arm ([2]; 3 mg/kg i.p.) | reversal of the scopolamine-induced amnesia; significance of exploration time novel vs. familiar arm ([2]; 10 mg/kg i.p.)
50 | CCN1C(C(=O)Nc2cccc(C(F)(F)F)n2)=CC(c2ccc(OC)c(OC)c2)=NS1(=O)=O [Example 33] | +++ (+++p < 0.001) | ++ (++p < 0.01) | ++ (++p < 0.01)
340 | CCCN1C(C(=O)Nc2cccc(C(F)(F)F)c2)=CC(c2ccc(OC)c(OC)c2)=NS1(=O)=O [Example 94] | +++ (+++p < 0.001) | +++ (+++p < 0.001) | +++ (+++p < 0.001)
230 | Cc1cccc(NC(=O)C2=CC(c3ccc4c(c3)c(C)nn4C)=NS(=O)(=O)N2C)c1 [Example 21] | ++ (++p < 0.01) | +++ (+++p < 0.001) | ++ (++p < 0.01)
340 | CCN1C(C(=O)Nc2cccc(C)c2)=CC(c2ccc(OC)c(OC)c2)=NS1(=O)=O [Example 29] | +++ (+++p < 0.001) | ++ (++p < 0.01) | +++ (+++p < 0.001)
35 | COc1ccc(C2=NS(=O)(=O)N(C(C)C)C(C(=O)Nc3cccc(C(F)(F)F)n3)=C2)cc1OC [Example 91] | +++ (+++p < 0.001) | + (+p < 0.05) | +++ (+++p < 0.001)
430 | COc1ccc(C2=NS(=O)(=O)N(C)C(C(=O)Nc3cccc(C)c3)=C2)cc1OC [Example 1, 5-(3,4-dimethoxyphenyl)-2-methyl-N-(3-methylphenyl)-1,1-dioxo-2H-1λ^6,2,6-thiadiazine-3-carboxamide] | ++ (++p < 0.01) | +++ (+++p < 0.001) | +++ (+++p < 0.001)
100 | CCCN1C(C(=O)Nc2cccc(C(F)(F)F)c2)=CC(c2ccc(OC)c(C)c2)=NS1(=O)=O [Example 98] |  |  | 
380 | CCCN1C(C(=O)Nc2cccc(Cl)c2)=CC(c2ccc(OC)c(OC)c2)=NS1(=O)=O [Example 114] |  |  | 
480 | CN1C(C(=O)Nc2cccc(C(F)(F)F)n2)=CC([C@H]2CC[C@H](C(F)(F)F)CC2)=NS1(=O)=O [Example 54] |  |  | 
3000 | COc1ccc(C2=NS(=O)(=O)N(C)C(C(=O)Nc3ccnc(C)c3)=C2)cc1OC [Example 15] |  |  | 
1100 | CCN1C(C(=O)Nc2cccc(C(F)(F)F)c2)=CC([C@H]2CC[C@H](C(F)(F)F)CC2)=NS1(=O)=O [Example 50] |  |  | 
45 | CCN1C(C(=O)Nc2cccc(OC)c2)=CC(c2ccc(OC)c(C(F)(F)F)c2)=NS1(=O)=O [Example 37] | +++ (+++p < 0.001) | ++ (++p < 0.01) | +++ (+++p < 0.001)
220 | CCN1C(C(=O)Nc2cccc(C(F)(F)F)n2)=CC([C@H]2CC[C@H](C)CC2)=NS1(=O)=O [Example 67] |  |  | 
440 | CCN1C(C(=O)Nc2ccc(C)c(Cl)c2)=CC(c2ccc(OC)c(OC)c2)=NS1(=O)=O [Example 30] |  |  | 
110 | CCN1C(C(=O)Nc2ccc(OC)cc2)=CC(c2ccc(OC)c(C)c2)=NS1(=O)=O [Example 43] |  |  | 
210 | CCc1cccc(NC(=O)C2=CC(c3ccc(OC)c(OC)c3)=NS(=O)(=O)N2C)c1 [Example 5] |  |  | 
500 | CCN1C(C(=O)Nc2cccc(Cl)c2)=CC(c2ccc(OC)c(C)c2)=NS1(=O)=O [Example 47] |  |  | 
